Patent publication US4794116A, “Anti-allergic esters, acetal ethers, thioethers and nitrogen substituted derivatives of bicyclic compounds” (Schering Corporation, priority 1986, dated 1988)

Key:
[1] = test system: anaphylactic bronchospasm; assay: inhibition of anaphylactic bronchospasm in sensitized guinea pigs having antigen induced broncho-constriction; format: in vivo, guinea pig (male Hartley); settings: for % Inhibition After 8 hr (peak increase in intratracheal pressure): 8 hours before ovalbumin challenge
Description: The anti-allergy method of this invention is identified by tests which measure a compound's inhibition of anaphylactic bronchospam in sensitized guinea pigs having antigen induced broncho-constriction.
In one such test procedure, male Hartley guinea pigs (250-300 g) are sensitized with 5 mg ovalbumin injected i.p. and 5 mg injected s.c. in 1 ml saline on day 1 and 5 mg ovalbumin injected i.p. on day 4. The sensitized animals are used 3-4 weeks later at which time they weigh 450-500 g.
The sensitized guinea pigs are fasted overnight and the following morning are anesthetized with 0.9 ml/kg i.p. of dialurethane (0.1 g/m diallybarbituric acid, 0.4 g/ml ethylurea and 0.4 g/ml urethane). The trachea are cannulated and the animals are ventilated by a Harvard rodent respirator at 50 strokes/minute with a stroke volume of 5 ml. A side arm to the tracheal cannula is connected to a Harvard pressure transducer to obtain a continuous measure of intratracheal pressure which is recorded on a Harvard polygraph. The jugular vein is cannulated for the i.v. administration of substances. The animals are challenged with antigen (0.5% ovalbumin) as an aerosol generated from a DeVilbiss Model 65 ultrasonic nebulizer and delivered through the tracheal cannula for 30 seconds. Bronchoconstriction is measured as the peak increase in intratracheal pressure occuring within 5 minutes after antigen challenge.
The sensitized guinea pigs are injected i.v. with 1 mg/kg propranolol, 5 mg/kg indomethacin and 2 mg/kg mepyramine given together in a volume of 1 ml/kg. Fifteen minutes later the animals are challenged with nebulized ovalbumin. Test compounds are administered orally 2 or 8 hours before challenge with ovalbumin. Suppression of anaphylactic bronchospasm is expressed as a percent inhibition of the peak increase in intratracheal pressure by comparison to a vehicle-treated control group.
*This measurement was made in a 21/2 day multipledosing regimen version o

paw edema = assay: Reversed Passive Arthus Response (RPAR) Paw; format: in vivo, rat (male Lewis); settings: oral dose of 25 mg/kg; for inhibited the paw edema at 2 hours: 2 hours post-challenge; for inhibited the paw edema at 4 hours: 4 hours post-challenge
Description: Reversed Passive Arthus Response (RPAR) PAW Animals, Materials and Methods
Male Lewis inbred albino rats weighing 180-200 grams obtained from Charles River Breeding Laboratories are used in these experiments. The rats are housed 3 animals/cage and food and water are allowed ad libitum. The animals are numbered 1-3 in each cage and color marked for identification purposes.
CL Drug and Reagent Preparation
All reagents and drugs are prepared just prior to the study. Crystallized and lyophilized bovine serum albumin (BSA), available from Sigma Chemical Company, is solubilized without shaking in cold, sterile, pyrogen-free saline (10 mg/ml). Lyophilized anti-bovine serum albumin (IgG fraction), obtained from Cappel Laboratories, is suspended in sterile distilled water and diluted with cold, pyrogen-free saline (PFS) just prior to use. The final concentration of anti-bovine serum albumin is 0.5 mg/ml of PFS. Both BSA and anti-BSA solutions are iced during use. Drugs are suspended or solubilized in an aqueous solution of methyl cellulose (MC) with an homogenizer just prior to administration.
Drug Administration and Induction of Inflammation
Groups of animals (6/group) are dosed with drug in MC by gavage once daily for 3 days. The last dose is administered one hour prior to sensitization with BSA. Controls are given MC alone and a drug-standard is usually included in each assay for verification purposes. Drugs are prepared and diluted so as to provide a dose for a 200 gram animal which is equivalent to the mg/kg dose for each experiment. Thus each rat receives an oral dose in a volume of approximately 2.0 cc. One hour after the last dose the animals are lightly anesthetized with ether and "sensitized" by injection of 0.2 ml of PFS containing 1.0 mg of BSA into the penile vein. One hour later, the animals are "challenged" in the right rear paw with subplantar injections of 0.2 ml of PFS containing 0.1 mg of anti-BSA. Immediately after the subplantar injection, the right paw is dipped (up to the lateral maleolus) into the mercury well of a plethysmograph. The volume of mercury displaced is converted to weight and recorded. This value is considered to be the control reading for the animal. Paw volumes are subsequently recorded with a plethysmograph during the development of the inflammation at 2 and 4 hours post-challenge.
Results are expressed by the change in paw volume (Δpaw volume) from the control reading for each animal to that recorded 2 and 4 hours post-challenge. All drug treated groups are compared to the MC control for significant differences with an analysis of variance. Differences from control in drug-treated groups are expressed as percent change from control. […]

[2] = 5 mg/kg p.o., 2 hours before ovalbumin challenge

Compound	% Inhibition After 2 hr (peak increase in intratracheal pressure) [1, 2] [%]	% Inhibition After 8 hr (peak increase in intratracheal pressure) ([1]; 5 mg/kg p.o.) [%]	inhibited the paw edema at 2 hours (paw edema) [%]	inhibited the paw edema at 4 hours (paw edema) [%]	% Inhibition After 2 hr (peak increase in intratracheal pressure) ([1]; 10 mg/kg p.o., 2 1/2 day multiple-dosing regimen version of the assay) [%]
CC(C)(C)C(=O)Oc1c(N2CCCC2)c(=O)n(-c2ccccc2)c2ncccc12 [Example 3, 4-(2,2-dimethylpropionyloxy)-1-phenyl-3-(1-pyrrolidinyl)-1,8-naphthyridin-2(1H)-one]	48	49	28	5	–
CCN(CC)C(=O)Oc1c(N2CCCC2)c(=O)n(-c2ccccc2)c2ncccc12 [Example 4, 4-(N,N-diethylcarbamoyloxy)-1-phenyl-3-(1-pyrrolidinyl)-1,8-naphthyridin-2(1H)-one]	48	32	54	17	–
Cc1ccc(C(=O)Oc2c(N3CCCC3)c(=O)n(-c3ccccc3)c3ncccc23)cc1 [Example 1, 4-(4-methylbenzoyloxy)-1-phenyl-3(1-pyrrolidinyl)-1,8-naphthyridin-2(1H)-one]	30	0	–	–	–
CC(=O)Oc1c(N2CCCC2)c(=O)n(-c2ccccc2)c2ncccc12 [Example 2, 4-acetyloxy-1-phenyl-3-(1-pyrrolidinyl)-1,8-naphthyridin-2(1H)-one]	–	–	–	–	87
